| Compound | logP |
| --- | --- |
| Cc1ccc2c(C)cccc2c1 | 4.27 |
| Cc1ccc2cc(C)c(C)cc2c1 | 4.7 |
| Cc1cc(C)c2cc(C)ccc2c1 | 4.38 |
| Cc1cc(C)c2ccccc2c1C | 4.49 |
| Cc1ccc2c(C)ccc(C)c2c1 | 4.55 |
| Cc1ccc2c(C)c(C)ccc2c1C | 4.95 |
| Cc1ccc2ccc(C)cc2c1 | 4.37 |
| Cc1ccc2cc(C)ccc2c1 | 4.39 |
| Cc1ccc2cccc(C)c2c1 | 4.19 |
| Cc1ccc(C)c2c(C)cccc12 | 4.48 |
| Cc1cc2c(C)ccc(C)c2cc1C | 4.74 |
| Cc1ccc2ccccc2c1 | 3.96 |
| Cc1cc(C)c2c(C)cccc2c1 | 4.52 |
| Cc1cccc2c(C)cccc12 | 4.22 |
| Cc1ccc(C)c2ccccc12 | 4.22 |

Reference: the SangsterLogP compilation
